Consider 19 compounds from PubChem BioAssay AID256 (DTP/NCI, 2004).

“And” between values parts separate entries of the source, which are not always exact repeats. Identical values can stand only once. Inconclusive results and toxic doses are left out.

The assay has as its system CD2F1 mice, L1210 leukemia ip, survival T/C. The experiment in a line: NCI In Vivo Anticancer Drug Screen. Data for tumor model L1210 Leukemia (intraperitoneal) in CD2F1 (CDF1) mice. The conditions noted are these: higher = longer survival. Summed up: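 Read-out first: treated-group measurement over vehicle-control measurement, expressed as a ratio. Animals bore a transplanted tumor line and were dosed with compound or vehicle.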

The mark [1] stands for this setting: endpoint: mean survival time, dose: 12.5 mg/kg/injection, schedule: Q01DX009 (ip), vehicle: water.
Setting [2] is: endpoint: mean survival time, dose: 25.0 mg/kg/injection, schedule: Q01DX009 (ip), vehicle: water.
Setting [3] is: endpoint: mean survival time, dose: 50.0 mg/kg/injection, schedule: Q01DX009 (ip), vehicle: water.
[4] abbreviates: endpoint: mean survival time, dose: 200.0 mg/kg/injection, schedule: Q04DX003 (ip), vehicle: saline with Tween-80.
[5] abbreviates: endpoint: mean survival time, dose: 400.0 mg/kg/injection, schedule: Q01DX009 (ip), vehicle: saline with Tween-80.
Setting [6] is: endpoint: mean survival time, dose: 400.0 mg/kg/injection, schedule: Q04DX003 (ip), vehicle: saline with Tween-80.
[7] abbreviates: endpoint: mean survival time, dose: 100.0 mg/kg/injection, schedule: Q04DX003 (ip), vehicle: saline with Tween-80.
Where [8] appears, read: endpoint: mean survival time, dose: 100.0 mg/kg/injection, schedule: Q01DX009 (ip), vehicle: saline with Tween-80.
The mark [9] stands for this setting: endpoint: mean survival time, dose: 100.0 mg/kg/injection, schedule: Q01DX001 (ip), vehicle: saline with Tween-80.
[10] abbreviates: endpoint: mean survival time, dose: 200.0 mg/kg/injection, schedule: Q01DX001 (ip), vehicle: saline with Tween-80.
Setting [11] is: endpoint: mean survival time, dose: 400.0 mg/kg/injection, schedule: Q01DX001 (ip), vehicle: saline with Tween-80.
Where [12] appears, read: endpoint: mean survival time, dose: 200.0 mg/kg/injection, schedule: Q01DX009 (ip), vehicle: saline with Tween-80.

`CC(=O)ON1C(=O)C2C3C=CC(O3)C2C1=O` (stereo unspecified): the T/C is, setting by setting: under setting [1], 100 % of control; under setting [2], 91 % of control; under setting [3], 96 % of control.
With `Nc1nnnn1C1CCCCC1`, the T/C under setting [4] is 106 % of control, the T/C under setting [5] is 92 % of control and the T/C under setting [6] is 97 % of control.
As to `[N-]=[N+]=NC1=C(c2ccccc2)C(=O)C=C(c2ccccc2)C1=O`, the T/C by setting is: (endpoint: mean survival time, dose: 25.0 mg/kg/injection, schedule: Q04DX003 (ip), vehicle: saline with Tween-80) 94 % of control; (endpoint: mean survival time, dose: 50.0 mg/kg/injection, schedule: Q04DX003 (ip), vehicle: saline with Tween-80) 94 % of control; under setting [7], 101 % of control and 102 % of control; under setting [6], 101 % of control.
In the case of `[Cl][Pt+2][Cl].[NH-]c1cccc(I)c1.[NH-]c1cccc(I)c1`, the T/C is, setting by setting: (endpoint: mean survival time, dose: 3.12 mg/kg/injection, schedule: Q04DX003 (ip), vehicle: distilled water + Tween-80) 103 % of control; (endpoint: mean survival time, dose: 6.25 mg/kg/injection, schedule: Q04DX003 (ip), vehicle: distilled water + Tween-80) 110 % of control; (endpoint: mean survival time, dose: 12.5 mg/kg/injection, schedule: Q04DX003 (ip), vehicle: distilled water + Tween-80) 108 % of control; (endpoint: mean survival time, dose: 25.0 mg/kg/injection, schedule: Q04DX003 (ip), vehicle: distilled water + Tween-80) 106 % of control; (endpoint: mean survival time, dose: 50.0 mg/kg/injection, schedule: Q04DX003 (ip), vehicle: distilled water + Tween-80) 112 % of control; (endpoint: mean survival time, dose: 100.0 mg/kg/injection, schedule: Q04DX003 (ip), vehicle: distilled water + Tween-80) 112 % of control.
As for `O=C1C=C(N2CC2)C(=O)C(N2CC2)=C1N1CC1`, the T/C is, setting by setting: (endpoint: median survival time, dose: 12.5 micrograms/kg/injection, schedule: Q01DX009 (ip), vehicle: saline) 113 % of control; (endpoint: median survival time, dose: 25.0 micrograms/kg/injection, schedule: Q01DX009 (ip), vehicle: saline with Tween-80) 96 % of control; (endpoint: median survival time, dose: 25.0 micrograms/kg/injection, schedule: Q01DX009 (ip), vehicle: saline) 113 % of control; (endpoint: median survival time, dose: 50.0 micrograms/kg/injection, schedule: Q01DX009 (ip), vehicle: saline with Tween-80) 118 % of control and 108 % of control; (endpoint: median survival time, dose: 100.0 micrograms/kg/injection, schedule: Q01DX009 (ip), vehicle: saline with Tween-80) 156 % of control; (endpoint: median survival time, dose: 200.0 micrograms/kg/injection, schedule: Q01DX009 (ip), vehicle: saline with Tween-80) 164 % of control and 190 % of control. In addition, the T/C (endpoint: median survival time, dose: 400.0 micrograms/kg/injection, schedule: Q01DX009 (ip), vehicle: saline with Tween-80) was 87 % of control and 91 % of control.
For `CC1=CC(C(=O)O)P(C)(=O)C1` (stereo unspecified), the T/C is, setting by setting: (endpoint: mean survival time, dose: 25.0 mg/kg/injection, schedule: Q01DX009 (ip), vehicle: saline with Tween-80) 101 % of control; (endpoint: mean survival time, dose: 25.0 mg/kg/injection, schedule: Q04DX002 (ip), vehicle: saline with Tween-80) 100 % of control; (endpoint: mean survival time, dose: 50.0 mg/kg/injection, schedule: Q01DX009 (ip), vehicle: saline with Tween-80) 101 % of control; (endpoint: mean survival time, dose: 50.0 mg/kg/injection, schedule: Q04DX002 (ip), vehicle: saline with Tween-80) 91 % of control; under setting [8], 104 % of control; (endpoint: mean survival time, dose: 100.0 mg/kg/injection, schedule: Q04DX002 (ip), vehicle: saline with Tween-80) 95 % of control.
As for `CC(=O)C=C(C)[O][Tl]`, the T/C (endpoint: mean survival time, dose: 75.0 mg/kg/injection, schedule: Q01DX001 (ip), vehicle: saline) is 102 % of control.
Regarding `Nc1ncnc2c1ncn2C1OC(CO)C2[O][Sn]([c]3ccccc3)([c]3ccccc3)[O]C21` (stereo unspecified), the T/C (endpoint: mean survival time, dose: 1.56 mg/kg/injection, schedule: Q01DX005 (ip), vehicle: other) is 107 % of control; the T/C (endpoint: mean survival time, dose: 3.13 mg/kg/injection, schedule: Q01DX005 (ip), vehicle: other) was 105 % of control; the T/C (endpoint: mean survival time, dose: 6.25 mg/kg/injection, schedule: Q01DX005 (ip), vehicle: other) is 100 % of control; the T/C (endpoint: mean survival time, dose: 12.5 mg/kg/injection, schedule: Q01DX005 (ip), vehicle: other) was 90 % of control and 107 % of control.
As to `CCOC1=C([N+](=O)[O-])C(c2ccccc2)NC1=O` (stereo unspecified), the T/C reads like this: under setting [7], 95 % of control; under setting [4], 95 % of control; under setting [6], 89 % of control.
Consider `C=C(C)C1C2CC3(C)C4(CO4)C4OC4C3(O)C1C(=O)O2` (stereo unspecified), for which the T/C was 100 % of control (endpoint: median survival time, dose: 0.25 mg/kg/injection, schedule: Q01DX009 (ip), vehicle: Klucel (hydroxypropylcellulose) (HPC)); 98 % of control (endpoint: median survival time, dose: 0.5 mg/kg/injection, schedule: Q01DX009 (ip), vehicle: Klucel (hydroxypropylcellulose) (HPC)); 103 % of control (endpoint: median survival time, dose: 1.0 mg/kg/injection, schedule: Q01DX009 (ip), vehicle: Klucel (hydroxypropylcellulose) (HPC)); 97 % of control (endpoint: median survival time, dose: 2.0 mg/kg/injection, schedule: Q01DX009 (ip), vehicle: Klucel (hydroxypropylcellulose) (HPC)).
Consider `CC(C)(CCC(=S)N1CCOCC1)C1CCCCC1`, for which the T/C was 97 % of control under setting [7], 96 % of control under setting [4] and 97 % of control under setting [6].
As for `COc1ccc(OC)c(CC(CC(=O)O)C(C)=O)c1` (stereo unspecified), the T/C was 96 % of control under setting [1]; 100 % of control under setting [2]; 96 % of control under setting [3]; 96 % of control (endpoint: mean survival time, dose: 100.0 mg/kg/injection, schedule: Q01DX009 (ip), vehicle: water); 100 % of control (endpoint: mean survival time, dose: 200.0 mg/kg/injection, schedule: Q01DX009 (ip), vehicle: water).
Consider `CC(C)CCCC(C)[C@@H]1CCC2[C@H]3CCC4(C)CC5=C(C[C@@]4(C)C3CC[C@]21C)C(=O)CC1C2CCCCC2CCN51` (stereo partly specified), for which the T/C reads like this: under setting [9], 102 % of control; under setting [10], 90 % of control; under setting [11], 90 % of control.
For the compound `CC(=O)C1CN(C(C)(C)C)C1`, the T/C (endpoint: mean survival time, dose: 6.25 mg/kg/injection, schedule: Q01DX009 (ip), vehicle: saline) is 93 % of control; the T/C (endpoint: mean survival time, dose: 6.25 mg/kg/injection, schedule: Q04DX003 (ip), vehicle: saline) is 98 % of control; the T/C (endpoint: mean survival time, dose: 12.5 mg/kg/injection, schedule: Q01DX009 (ip), vehicle: saline) was 98 % of control; the T/C (endpoint: mean survival time, dose: 12.5 mg/kg/injection, schedule: Q04DX003 (ip), vehicle: saline) is 96 % of control; the T/C (endpoint: mean survival time, dose: 25.0 mg/kg/injection, schedule: Q01DX009 (ip), vehicle: saline) is 98 % of control; the T/C (endpoint: mean survival time, dose: 25.0 mg/kg/injection, schedule: Q04DX003 (ip), vehicle: saline) is 95 % of control.
With `Cc1ccc(S(=O)(=O)OCC2OCOC(C(O)CI)C2O)cc1` (stereo unspecified), the T/C reads like this: under setting [9], 92 % of control; under setting [10], 92 % of control; under setting [11], 102 % of control.
With `Cc1cc(C)[nH]c(=O)c1`, the T/C by setting is: (endpoint: mean survival time, dose: 100.0 mg/kg/injection, schedule: Q01DX009 (ip), vehicle: saline) 106 % of control; (endpoint: mean survival time, dose: 200.0 mg/kg/injection, schedule: Q01DX009 (ip), vehicle: saline) 106 % of control; (endpoint: mean survival time, dose: 400.0 mg/kg/injection, schedule: Q01DX009 (ip), vehicle: saline) 106 % of control.
As to `CC(=O)Oc1cc2c(cc1C(C)C)CCC1C(C)(C#N)CCCC21C` (stereo unspecified), the T/C is, setting by setting: under setting [8], 90 % of control; under setting [7], 89 % of control; under setting [12], 95 % of control; under setting [4], 87 % of control; under setting [5], 92 % of control; under setting [6], 98 % of control.
Turning to `O=C(C1=CC=CC1=P(c1ccccc1)(c1ccccc1)c1ccccc1)C(Cl)(Cl)Cl`, the T/C by setting is: under setting [8], 94 % of control; under setting [12], 107 % of control; under setting [5], 107 % of control.
Consider `COC(=O)C1(C)CCOC1=O` (stereo unspecified), for which the T/C is 107 % of control (endpoint: mean survival time, dose: 100.0 mg/kg/injection, schedule: Q04DX002 (ip), vehicle: saline); 98 % of control (endpoint: mean survival time, dose: 200.0 mg/kg/injection, schedule: Q04DX002 (ip), vehicle: saline); 102 % of control (endpoint: mean survival time, dose: 400.0 mg/kg/injection, schedule: Q04DX002 (ip), vehicle: saline).
